Experimental data reported in paper PMC12022909, “A Multicomponent Reaction-Based Platform Opens New Avenues in Aryl Hydrocarbon Receptor Modulation” (ACS Central Science, 2025).

Experiments:
[1] = molecular target: T1, aryl hydrocarbon receptor (AhR) (Homo sapiens, UniProt P35869); assay: AhR/XRE-dependent luciferase reporter gene assay in XRE-HepG2 cells; assay type: cell-based; conditions: for EC50: XRE-HepG2 cells, 8 h, unit as in the supplements, read-out: AhR/XRE-dependent luciferase activity EC50
T1 construct: AhR-dependent reporter gene activity was determined in human HepG2 cells stably transfected with an XRE; endogenous in cells; host or cells: XRE-HepG2 (human HepG2 hepatoma cells stably carrying an XRE-luciferase plasmid)
T1 sequence (P35869 11-848): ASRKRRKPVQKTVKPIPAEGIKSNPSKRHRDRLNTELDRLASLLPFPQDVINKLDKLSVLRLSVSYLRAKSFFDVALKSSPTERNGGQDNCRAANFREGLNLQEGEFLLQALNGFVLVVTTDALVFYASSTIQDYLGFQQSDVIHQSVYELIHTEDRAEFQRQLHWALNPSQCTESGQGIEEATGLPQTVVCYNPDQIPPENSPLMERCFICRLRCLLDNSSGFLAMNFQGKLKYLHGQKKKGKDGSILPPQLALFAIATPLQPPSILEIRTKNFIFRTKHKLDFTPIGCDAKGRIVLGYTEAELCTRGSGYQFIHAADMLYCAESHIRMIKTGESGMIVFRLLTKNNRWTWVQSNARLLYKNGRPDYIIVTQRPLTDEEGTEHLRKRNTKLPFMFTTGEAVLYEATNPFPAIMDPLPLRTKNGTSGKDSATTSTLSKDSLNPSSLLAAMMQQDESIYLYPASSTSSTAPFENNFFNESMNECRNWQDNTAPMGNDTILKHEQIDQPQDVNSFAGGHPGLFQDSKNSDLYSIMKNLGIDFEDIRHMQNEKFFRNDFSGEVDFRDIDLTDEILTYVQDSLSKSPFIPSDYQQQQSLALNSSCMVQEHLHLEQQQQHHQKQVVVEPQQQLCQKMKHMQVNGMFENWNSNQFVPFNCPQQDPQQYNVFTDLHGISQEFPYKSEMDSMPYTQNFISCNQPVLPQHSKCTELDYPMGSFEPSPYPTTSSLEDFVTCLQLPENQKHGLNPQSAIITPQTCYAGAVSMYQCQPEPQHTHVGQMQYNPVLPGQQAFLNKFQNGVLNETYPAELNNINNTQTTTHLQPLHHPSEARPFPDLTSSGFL
Procedure: (f) AhR/XRE-dependent reporter gene activity results (EC50/μM).
Data are shown as mean ± SEM.
The human XRE -HepG2 reporter cell -line was a kind gift of K. Gradin and L. Poellinger (Karolinska Institute, Stockholm,
antibiotic/antimycotic solution, and 0.8 mg/ml G418. All cells were cultivated at 37 °C in a humidified atmosphere containing 5% CO 2.
AhR-dependent reporter gene activity was determined in human HepG2 cells stably transfected with an XRE -harboring luciferase plasmid (XRE-HepG2 cells). […] Luciferase activity was normalized to protein content.

[2] = system: IL-19, CXCL1, and CCL26 gene expression; assay: IL-13 triggered proinflammatory gene expression in HaCaT keratinocytes; assay type: cell-based, human; conditions: IL-13 10 ng/mL
Excerpt: As AhR activation is beneficial for pathologies including chronic inflammatory skin diseases,[74] we assessed the potential anti-inflammatory role of our ligands by cotreating HaCaT keratinocytes with the proinflammatory cytokine IL-13 and a selection of 6-ICZs (Figure 7a).
Figure 7 Anti-inflammatory effect of the 6-ICZs. (a) Structure of the tested compounds and the control tapinarof (T). (b) IL-13 triggered gene expression of proinflammatory IL-19, CXCL1, and CCL26 expressed as fold of 0.1% DMSO control. HaCaT keratinocytes were treated with IL-13 (10 ng/mL) for 24 h, then either untreated (−) or treated with positive control T (1 μM) or 6-ICZs (1 μM). n = 3–4. For statistical analysis an unpaired t-test was performed and data are shown as mean ± SEM (*, p ≤ 0.05 compared to IL-13 (10 ng/mL)).
Cell culture and treatment
Human HaCaT and HaCaT-AhR-deficient keratinocytes were cultured in DMEM low glucose (1 g/l) medium (PAN Biotech, Aidenbach, Germany) supplemented with 10% (v/v) fetal bovine serum (PAN Biotech) and 1% (v/v) antibiotics/antimycotics (PAN Biotech). […]
Quantitative real-time PCR
The isolation of total RNA, reverse transcription, and quantitative real-time PCR was conducted as described previously.[26] […]
AhR-dependent reporter gene activity was determined in human HepG2 cells stably transfected with an XRE -harboring luciferase plasmid (XRE-HepG2 cells). […]

Row | Structure (SMILES) | EC50 [1] | increase in the EC50 value relative to 5c ([1]; from reporter gene EC50 values) | anti-inflammatory potency compared with positive control tapinarof ([2]; 1 μM) | IL-13-triggered induction of IL-19, CXCL1, and CCL26 gene expression ([2]; 24 h, compound 1 μM)
1 | Cc1[nH]c2ccccc2c1-c1c2[nH]c3ccccc3c2cc2[nH]c3ccccc3c12 [5e] | 520 nM | 1.4 fold |  | 
2 | CCOc1c2[nH]c3ccccc3c2cc2[nH]c3ccccc3c12 [compound 8, 6-ethoxy-ICZ] | 90 nM |  | slightly more potent than the positive control tapinarof | significantly reduced
